Laboratory results reported in PMC5336358, “Origin and evolution of transporter substrate specificity within the NPF family” (eLife, 2017).

Experiments:
CpGTRL2 (Cp17.190) = system: T1, CpGTRL2 (Cp17.190); assay: TEVC currents in Xenopus oocytes, Michaelis-Menten fit; type: cell-based, Carica papaya; conditions: pH 5, -60 mV membrane potential
T1 construct: full-length untagged, codon-optimized cRNA in Xenopus laevis oocytes; primer encodes N-term MEMDGKE

BrGTR1 (BrF01711) = target: T2, BrGTR1 (BrF01711) (Brassica rapa, UniProt A0A8D9DAH7); assay: oocyte uptake, LC-MS; TEVC currents; type: cell-based; conditions: […] substrate, pH […] min
T2 construct: gene BRAPAZ1V2_A06P20680.2; full-length untagged, codon-optimized cRNA in Xenopus laevis oocytes; primer encodes N-term MERKPFE
T2 sequence (A0A8D9DAH7 1-615): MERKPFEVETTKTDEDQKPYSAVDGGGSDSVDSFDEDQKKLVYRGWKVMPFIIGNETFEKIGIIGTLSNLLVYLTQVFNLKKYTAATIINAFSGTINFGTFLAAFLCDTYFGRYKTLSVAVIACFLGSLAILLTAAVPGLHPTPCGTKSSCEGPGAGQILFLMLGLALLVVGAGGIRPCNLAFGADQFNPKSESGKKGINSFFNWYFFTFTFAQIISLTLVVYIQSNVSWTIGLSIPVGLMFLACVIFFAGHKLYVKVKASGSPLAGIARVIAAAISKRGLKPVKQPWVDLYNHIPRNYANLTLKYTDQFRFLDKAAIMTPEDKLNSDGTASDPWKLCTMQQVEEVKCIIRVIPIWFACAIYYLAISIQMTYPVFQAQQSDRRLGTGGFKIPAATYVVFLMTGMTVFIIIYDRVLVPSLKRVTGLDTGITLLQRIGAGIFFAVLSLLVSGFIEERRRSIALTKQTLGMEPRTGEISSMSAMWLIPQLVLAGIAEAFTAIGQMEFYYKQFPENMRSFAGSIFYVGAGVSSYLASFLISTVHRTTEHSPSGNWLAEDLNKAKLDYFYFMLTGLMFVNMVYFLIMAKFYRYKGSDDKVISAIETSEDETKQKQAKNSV

Me14G074000 = target: T3, Me14G074000 (Manihot esculenta, UniProt A0A2C9ULI5); assay: oocyte uptake, LC-MS; type: cell-based; conditions: 0.2 mM substrate, pH 5, 60 min
T3 construct: gene MANES_14G074000v8; full-length untagged, codon-optimized cRNA in Xenopus laevis oocytes; primer encodes N-term MATGETI

GTR1 (AtGTR1, NPF2.10) = target: T4, GTR1 (AtGTR1, NPF2.10) (Arabidopsis thaliana, UniProt Q944G5); assay: TEVC currents in Xenopus oocytes, Michaelis-Menten fit; type: cell-based; conditions: pH 5, -60 mV membrane potential
T4 construct: full-length untagged, cRNA in Xenopus laevis oocytes
T4 sequence (Q944G5 1-636): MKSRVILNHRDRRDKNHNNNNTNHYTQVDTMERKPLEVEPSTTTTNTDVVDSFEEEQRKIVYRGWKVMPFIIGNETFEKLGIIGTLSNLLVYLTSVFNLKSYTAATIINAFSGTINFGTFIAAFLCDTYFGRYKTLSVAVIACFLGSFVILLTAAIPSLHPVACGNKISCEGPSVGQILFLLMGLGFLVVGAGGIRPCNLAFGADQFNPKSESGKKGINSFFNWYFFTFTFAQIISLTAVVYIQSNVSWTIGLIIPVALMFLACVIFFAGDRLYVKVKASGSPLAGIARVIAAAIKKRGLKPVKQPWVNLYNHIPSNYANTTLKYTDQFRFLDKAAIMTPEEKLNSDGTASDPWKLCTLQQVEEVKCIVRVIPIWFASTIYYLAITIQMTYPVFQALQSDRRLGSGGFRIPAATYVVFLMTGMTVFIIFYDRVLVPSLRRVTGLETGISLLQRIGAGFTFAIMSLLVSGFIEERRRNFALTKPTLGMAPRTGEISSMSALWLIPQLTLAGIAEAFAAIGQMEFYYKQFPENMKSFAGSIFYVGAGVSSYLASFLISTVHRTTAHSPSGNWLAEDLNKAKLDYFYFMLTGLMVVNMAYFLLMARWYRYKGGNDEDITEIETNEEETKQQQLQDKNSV

GTR2 (AtGTR2, NPF2.11) = target: T5, GTR2 (AtGTR2, NPF2.11) (Arabidopsis thaliana, UniProt Q9LV10); assay: as above; type: cell-based; conditions: pH 5, -60 mV membrane potential
T5 construct: full-length untagged, cRNA in Xenopus laevis oocytes
T5 sequence (Q9LV10 1-616): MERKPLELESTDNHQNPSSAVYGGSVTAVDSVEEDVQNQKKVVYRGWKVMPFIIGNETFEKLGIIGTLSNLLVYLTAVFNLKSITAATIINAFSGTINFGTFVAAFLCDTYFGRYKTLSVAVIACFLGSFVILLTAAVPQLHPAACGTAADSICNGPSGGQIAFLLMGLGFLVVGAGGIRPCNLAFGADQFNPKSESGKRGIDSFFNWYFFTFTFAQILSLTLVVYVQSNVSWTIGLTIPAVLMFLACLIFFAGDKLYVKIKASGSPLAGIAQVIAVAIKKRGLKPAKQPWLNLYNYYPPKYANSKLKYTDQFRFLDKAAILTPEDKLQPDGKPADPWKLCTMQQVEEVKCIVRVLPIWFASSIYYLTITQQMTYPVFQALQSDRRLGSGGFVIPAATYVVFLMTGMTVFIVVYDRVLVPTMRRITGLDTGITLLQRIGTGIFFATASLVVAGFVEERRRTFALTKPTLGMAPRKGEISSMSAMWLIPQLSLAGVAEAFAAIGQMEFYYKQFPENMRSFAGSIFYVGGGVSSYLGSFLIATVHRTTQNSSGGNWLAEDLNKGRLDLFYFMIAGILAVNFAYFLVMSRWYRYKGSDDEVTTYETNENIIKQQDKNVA

BrGTR3 (BrH02396) = target: T6, BrGTR3 (BrH02396) (Brassica rapa, UniProt A0A397YP93); assay: oocyte uptake, LC-MS; TEVC currents; type: cell-based; conditions: […] substrate, pH […] min
T6 construct: gene BRARA_H02396; full-length untagged, codon-optimized cRNA in Xenopus laevis oocytes; primer encodes N-term MEVEKTQE
T6 sequence (A0A397YP93 1-591): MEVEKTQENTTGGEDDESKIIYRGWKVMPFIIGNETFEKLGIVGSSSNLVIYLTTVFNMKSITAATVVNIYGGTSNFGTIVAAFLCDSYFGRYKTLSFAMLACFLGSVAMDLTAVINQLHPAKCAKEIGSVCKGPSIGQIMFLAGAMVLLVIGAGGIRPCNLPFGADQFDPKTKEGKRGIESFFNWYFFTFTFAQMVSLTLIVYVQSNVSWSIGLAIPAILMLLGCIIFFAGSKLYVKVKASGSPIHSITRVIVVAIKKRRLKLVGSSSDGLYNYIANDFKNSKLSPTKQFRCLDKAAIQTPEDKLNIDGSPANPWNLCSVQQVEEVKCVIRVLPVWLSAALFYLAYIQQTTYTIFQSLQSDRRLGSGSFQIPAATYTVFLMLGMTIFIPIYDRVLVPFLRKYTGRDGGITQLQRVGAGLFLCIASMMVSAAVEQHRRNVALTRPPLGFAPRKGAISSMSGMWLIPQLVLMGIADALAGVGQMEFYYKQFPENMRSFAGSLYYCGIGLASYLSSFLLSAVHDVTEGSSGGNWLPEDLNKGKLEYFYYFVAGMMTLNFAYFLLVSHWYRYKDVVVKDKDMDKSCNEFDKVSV

GTR3 (NPF2.9, At1g18880) = target: T7, GTR3 (NPF2.9, At1g18880) (Arabidopsis thaliana, UniProt Q9M9V7); assay: TEVC currents in Xenopus oocytes, Michaelis-Menten fit; type: cell-based; conditions: pH 5, -60 mV membrane potential
T7 construct: full-length untagged, cRNA in Xenopus laevis oocytes
T7 sequence (Q9M9V7 1-587): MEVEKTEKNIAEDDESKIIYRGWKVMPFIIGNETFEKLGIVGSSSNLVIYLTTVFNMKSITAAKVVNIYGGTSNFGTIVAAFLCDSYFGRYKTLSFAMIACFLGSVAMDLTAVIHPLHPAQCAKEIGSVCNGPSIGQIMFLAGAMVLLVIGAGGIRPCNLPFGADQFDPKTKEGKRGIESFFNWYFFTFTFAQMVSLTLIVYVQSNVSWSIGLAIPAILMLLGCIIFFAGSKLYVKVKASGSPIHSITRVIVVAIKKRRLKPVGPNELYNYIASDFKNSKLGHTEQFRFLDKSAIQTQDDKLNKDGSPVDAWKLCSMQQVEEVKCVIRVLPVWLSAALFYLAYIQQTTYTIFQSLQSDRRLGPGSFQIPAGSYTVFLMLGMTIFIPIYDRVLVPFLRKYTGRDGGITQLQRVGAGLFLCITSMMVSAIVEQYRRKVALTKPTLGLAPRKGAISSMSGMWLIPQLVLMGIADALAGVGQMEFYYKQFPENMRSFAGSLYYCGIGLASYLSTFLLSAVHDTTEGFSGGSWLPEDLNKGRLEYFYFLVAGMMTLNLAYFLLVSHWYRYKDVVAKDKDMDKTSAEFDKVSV

Me15G176100 = target: T8, Me15G176100 (Manihot esculenta, UniProt A0A2C9UH66); assay: oocyte uptake, LC-MS; type: cell-based; conditions: 0.2 mM substrate, pH 5, 60 min
T8 construct: gene MANES_15G175484v8; full-length untagged, codon-optimized cRNA in Xenopus laevis oocytes; primer encodes N-term MEDKEEKS

[1] = substrate: CC(C)(C#N)O[C@@H]1O[C@H](CO)[C@@H](O)[C@H](O)[C@H]1O; assay: TEVC currents in Xenopus oocytes, Michaelis-Menten fit; type: cell-based, Manihot esculenta; conditions: pH 5, -60 mV membrane potential
[2] = substrate: N#C[C@H](O[C@@H]1O[C@H](CO)[C@@H](O)[C@H](O)[C@H]1O)c1ccccc1; assay: as above; type: cell-based, Manihot esculenta; conditions: pH 5, -60 mV membrane potential

T3 sequence (A0A2C9ULI5 entry or part of it): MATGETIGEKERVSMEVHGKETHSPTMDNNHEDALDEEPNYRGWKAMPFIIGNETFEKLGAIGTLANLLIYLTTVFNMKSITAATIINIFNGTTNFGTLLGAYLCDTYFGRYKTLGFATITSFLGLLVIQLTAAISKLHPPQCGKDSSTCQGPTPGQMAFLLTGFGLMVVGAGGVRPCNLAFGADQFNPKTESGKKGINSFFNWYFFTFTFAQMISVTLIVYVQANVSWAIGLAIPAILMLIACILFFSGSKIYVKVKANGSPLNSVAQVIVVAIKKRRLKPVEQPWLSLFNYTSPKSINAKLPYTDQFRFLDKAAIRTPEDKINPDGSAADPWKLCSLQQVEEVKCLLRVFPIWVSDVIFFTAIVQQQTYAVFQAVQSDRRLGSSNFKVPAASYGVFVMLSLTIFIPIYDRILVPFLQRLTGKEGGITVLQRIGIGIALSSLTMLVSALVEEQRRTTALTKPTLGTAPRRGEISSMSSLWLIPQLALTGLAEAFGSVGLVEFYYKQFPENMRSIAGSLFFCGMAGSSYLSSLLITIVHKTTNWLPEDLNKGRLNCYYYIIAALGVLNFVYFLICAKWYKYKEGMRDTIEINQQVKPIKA
T8 sequence (A0A2C9UH66 entry or part of it): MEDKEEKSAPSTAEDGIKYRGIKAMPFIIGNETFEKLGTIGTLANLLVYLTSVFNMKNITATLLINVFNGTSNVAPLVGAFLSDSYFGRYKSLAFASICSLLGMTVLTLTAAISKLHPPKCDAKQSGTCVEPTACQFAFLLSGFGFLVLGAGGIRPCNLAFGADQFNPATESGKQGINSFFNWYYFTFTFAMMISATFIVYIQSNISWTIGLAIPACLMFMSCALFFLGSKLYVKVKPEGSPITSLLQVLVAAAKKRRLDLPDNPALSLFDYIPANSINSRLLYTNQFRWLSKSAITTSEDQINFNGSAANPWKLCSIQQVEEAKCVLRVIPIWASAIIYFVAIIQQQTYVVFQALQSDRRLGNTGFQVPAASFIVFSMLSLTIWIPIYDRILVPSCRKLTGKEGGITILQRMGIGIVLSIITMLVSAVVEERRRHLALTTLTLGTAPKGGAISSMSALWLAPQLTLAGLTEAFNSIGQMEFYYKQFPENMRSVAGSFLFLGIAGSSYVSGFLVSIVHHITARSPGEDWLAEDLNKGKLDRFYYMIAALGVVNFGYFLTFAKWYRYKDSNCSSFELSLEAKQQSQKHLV

## CSCCCC/C(=N/OS(=O)(=O)O)S[C@@H]1O[C@H](CO)[C@@H](O)[C@H](O)[C@H]1O [4MTB, 4-methylthiobutyl glucosinolate]
CpGTRL2 (Cp17.190)
  Km: 85 ± 12 µM
BrGTR1 (BrF01711)
  oocyte uptake, LC-MS; TEVC currents: BrGTR1 ortholog (BrF01711) transported 4MTB and I3M with similar efficiency
Me14G074000
  oocyte uptake, LC-MS: Me14G074000 from cassava over-accumulated both 4MTB and I3M relative to external media

## O=S(=O)(O)O/N=C(/Cc1c[nH]c2ccccc12)S[C@@H]1O[C@H](CO)[C@@H](O)[C@H](O)[C@H]1O [I3M, indol-3-yl-methyl glucosinolate]
GTR1 (AtGTR1, NPF2.10)
  Km: < 25 µM
GTR2 (AtGTR2, NPF2.11)
  Km: < 25 µM
BrGTR1 (BrF01711)
  oocyte uptake, LC-MS; TEVC currents: BrGTR1 ortholog (BrF01711) transported 4MTB and I3M with similar efficiency
BrGTR3 (BrH02396)
  oocyte uptake, LC-MS; TEVC currents: strong preference for I3M by the tested BrGTR3 ortholog (BrH02396)
GTR3 (NPF2.9, At1g18880)
  Km: < 25 µM

## N#C[C@H](O[C@@H]1O[C@H](CO)[C@@H](O)[C@H](O)[C@H]1O)c1ccccc1 [prunasin]
Me15G176100
  oocyte uptake, LC-MS: Uptake of prunasin was detected in oocytes expressing Me15G176100
Me14G074000
  oocyte uptake, LC-MS: Me14G074000 from cassava accumulated prunasin, but not linamarin, to levels equivalent to media

B1: MeCGTR1 (Me15G180400) (Manihot esculenta) (protein)
chain: MENGNDHAQDQQKSIEKDEEPVINYRGIKAMPFIIGNETFEKLGTVGSSTNLVVYLNTVFNLKSVTATTLVNIFNGTTNLAPLLGAFLCDTYFGRYKTLGFASVASFLGMSALALTAAVPTLHPPKCVGKESSQCVGPSIWQLAFLLCGFGLIAIGAGGIRPCNLAFGAEQFNPNTESGKRGMSSFFNWYYFTYTFAVMVSVTGIVYVQSDVSWAIGLAIPAFLMFLSCAVFFIGTKIYVIVKPEGSPITSVVQVLVVSVKKRGLKLPQNPAVSLFNYVPAKSINSRLSHTEQFSFLDKAAIVTEKDEINLDGSAANPWRLCSIQQVEEVKCMVRIIPIWASAIIYHVPLIQQQTYAVLQALQLDRRLGTGSFEIPAATFIIFTMLALTIWIPIYDRILVPFLQRLTGKEGGFTLLQRMGIGILLSVLCMFVSGLVESHRRDIALSKPTLGISPKGGAVSSMTWLWLVPQLALAGLSEGFNYVSQIEFYYKQFPENMRSIAGSSFFAGLALANFLSGLLVSTIHKITSATKSGDWLSEDLNKGKLDHFYYVIGVLGTVNMAYFLLCAKWYRYKVREDDGSVEMSNKSSVKHHV
notes: full-length untagged, codon-optimized cRNA in Xenopus laevis oocytes (pNB1u); primer encodes N-term MENGNDH
[1]
  Km: 262 ± 15 µM
[2]
  Km: 80 ± 7 µM
